Measured values published in US4839374A, “4-((Bicyclic heterocyclyl)-methyl and -hetero)-piperidines” (Janssen Pharmaceutica, N.V., priority 1987, dated 1989).
Like-named read-outs stand apart in the source and are kept apart here.

Experiments:
effects of serotonin [1] = settings: rats, compound 48/80; known serotonin-antagonists; cited from earlier work
effects of serotonin [2] = assay: Antagonistic activity on the effects of serotonin in the gastric lesion test (lesions induced by compound 48/80); format: in vivo, rats of a Wistar inbred strain; settings: Rattus norvegicus, po, read-out: gastric lesion test ED50
Method in brief: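 Fasted male Wistar rats (220–250 g) dosed orally with compound; 1 h later 2.5 mg/kg s.c. H1 antagonist, then compound 48/80 i.v. Stomachs examined 4 h afterwards for distension and glandular lesions (scored 0 to +++); ED50 is the oral dose (mg/kg) abolishing both in 50% of rats.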

[3] = test system: compound 48/80-induced lethality; assay: Protection of rats from compound 48/80-induced lethality; format: in vivo, rats of an inbred Wistar strain; settings: Rattus norvegicus, 4 h, read-out: Compound 48/80 lethality test in rats ED50, s.c. or p.o. 1 h before compound 48/80 0.5 mg/kg i.v.; protection of 50% of animals, survival after 4 hours
Method in brief: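 Male inbred Wistar rats (240-260 g), starved overnight, dosed subcutaneously or orally with compound or 0.9% NaCl before compound 48/80 challenge. Survival at 4 hours counted as protection. ED50 in mg/kg is the dose protecting 50% of animals from lethality.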

[4] = compound 48/80 1 mg/kg i.v., distension and lesions of stomach completely absent in 50% of rats

| SMILES | prevention of cyanosis of ears and extremities, lesions in the glandular area of the stomach and abnormal gastric distension (effects of serotonin [1]) | ED50 (effects of serotonin [2]; [4]) | ED50 [3] | ED50 (effects of serotonin [2]) |
| --- | --- | --- | --- | --- |
| CN(C)CCCSc1ccccc1NC(=O)/C=C/c1ccccc1 [cinanserin] | prevent completely | – | – | – |
| O=C(CCCN1CCC2(CC1)C(=O)NCN2c1ccccc1)c1ccc(F)cc1 [spiperone] | prevent completely | – | – | – |
| CC[C@@H](CO)NC(=O)[C@@H]1C=C2c3cccc4c3c(cn4C)C[C@H]2N(C)C1 [methysergide] | prevent completely | – | – | – |
| CN1CCC(=C2c3ccccc3CCc3sccc32)CC1 [pizotifen] | prevent completely | – | – | – |
| CN1C[C@H](CNC(=O)OCc2ccccc2)C[C@@H]2c3cccc4c3c(cn4C)C[C@H]21 [metergoline] | prevent completely | – | – | – |
| CN1CCC(=C2c3ccccc3C=Cc3ccccc32)CC1 [cyproheptadine] | prevent completely | – | – | – |
| NC(=O)C1(N2CCCCC2)CCN(CCCC(=O)c2ccc(F)cc2)CC1 [pipamperone] | prevent completely | – | – | – |
| CC(=O)N(CCN1CCC(Cc2nc3ccccc3n2Cc2ccc(F)cc2)CC1)c1ncccn1 [Compound 510, N-[2-[4-[[1-[(4-fluorophenyl)methyl]-1H-benzimidazol-2-yl]methyl]-1-piperidinyl]ethyl]-N-(2-pyrimidinyl)acetamide] | – | 0.16 mg/kg | 0.02 mg/kg | – |
| Fc1ccc(Cn2c(CC3CCN(CCn4c(S)nc5cncnc54)CC3)nc3ccccc32)cc1 [Compound 495, 9-[2-[4-[[1-[(4-fluorophenyl)methyl]-1H-benzimidazol-2-yl]methyl]-1-piperidinyl]ethyl]-9H-purine-8-thiol] | – | 0.16 mg/kg | 0.04 mg/kg | – |
| Cc1nc2ccccn2c(=O)c1CCN1CCC(Cc2nc3cccnc3n2Cc2ccc(F)cc2)CC1 [Compound 177] | – | 0.31 mg/kg | 0.04 mg/kg | – |
| CC(=O)CCN1CCC(Cc2nc3ccccc3n2Cc2ccc(F)cc2)CC1 [Compound 102, 4-[4-[[1-[(4-fluorophenyl)methyl]-1H-benzimidazol-2-yl]methyl]-1-piperidinyl]-2-butanone] | – | 0.31 mg/kg | 0.02 mg/kg | – |
| CN1CCN2c3ccccc3Cc3ccccc3C2C1 (stereo not drawn) [mianserin] | prevent completely | – | – | – |
| Cc1cc(NCCN2CCC(Cc3nc4ccccc4n3Cc3ccc(F)cc3)CC2)nc(Cl)n1 [Compound 383, 2-chloro-N-[2-[4-[[1-[(4-fluorophenyl)methyl]-1H-benzimidazol-2-yl]methyl]-1-piperidinyl]ethyl]-6-methyl-4-pyrimidinamine] | – | 0.16 mg/kg | 0.04 mg/kg | – |
| O=C(NCCN1CCC(Cc2nc3ccccc3n2Cc2ccc(F)cc2)CC1)C(=O)c1cccs1 [Compound 439, N[2-[;b 4-[[1-[(4-fluorophenyl)methyl]-1H-benzimidazol-2-yl]methyl]-1-piperidinyl]ethyl]-α-oxo-2-thiopheneacetamide] | – | 0.31 mg/kg | 0.16 mg/kg | – |
| Cc1nc2n(c(=O)c1CCN1CCC(Cc3nc4ccccc4n3Cc3cscn3)CC1)CCCC2 [Compound 262] | – | 0.16 mg/kg | 0.04 mg/kg | – |
| Cc1nc2n(c(=O)c1CCN1CCC(Cc3nc4ccccc4n3Cc3cccs3)CC1)CCCC2 [Compound 263] | – | – | 0.04 mg/kg | 0.04 mg/kg |
